Source: ChEMBL document CHEMBL1201862, “PubChem BioAssay data set” (2004)
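Compound exposure: 48 hours, 5 concentrations, 96-well plates. The concentration for 50% growth inhibition is given as GI50.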 Calls of active or inactive are those of the source. Rule as the data show it: active = GI50 up to about 1.1 µM and inactive = higher.

What was measured:
Assay in all cases: NCI tumour cell line growth inhibition, 48 h
[1] = system: A549
[2] = system: EKVX
[3] = system: HCT-15
[4] = system: HL-60
[5] = system: HOP-62
[6] = system: HT-29
[7] = system: IGROV-1
[8] = system: LOX IMVI
[9] = system: M14
[10] = system: MOLT-4
[11] = system: SF-295
[12] = system: SN12C
[13] = system: SNB-75
[14] = system: SR
[15] = system: SW-620
[16] = system: TK-10
[17] = system: U-251
[18] = system: HOP-92

Row | SMILES | GI50 [1] | GI50 [2] | GI50 [3] [µM] | GI50 [4] | GI50 [5] | GI50 [6] | GI50 [7] | GI50 [8] | GI50 [9] | GI50 [10] | GI50 [11] | GI50 [12] | GI50 [13] | GI50 [14] | GI50 [15] | GI50 [16] | GI50 [17] | GI50 [18]
1 | COC(=O)C1=C(C(=O)OC)C2(C)OC1C(=O)C21CC1 (stereo not drawn) | > 100 µM (inactive) | 39.7 µM (inactive) | 19.7 | 16.7 µM (inactive) | > 100 µM (inactive) | 18.1 µM (inactive) | 23.2 µM (inactive) | 18.8 µM (inactive) | 15.3 µM (inactive) | 19.5 µM (inactive) | 44 µM (inactive) | 22.9 µM (inactive) | 28.9 µM (inactive) | 19 µM (inactive) | 19.5 µM (inactive) | > 10 µM (inactive) | > 100 µM (inactive) | –
2 | CC(=O)OC1C(CCl)OC(N=[N+]=[N-])C(OC(C)=O)C1OC(C)=O (stereo not drawn) | > 100 µM (inactive) | > 100 µM (inactive) | > 100 | > 100 µM (inactive) | > 100 µM (inactive) | > 100 µM (inactive) | > 100 µM (inactive) | – | > 100 µM (inactive) | > 100 µM (inactive) | > 100 µM (inactive) | > 100 µM (inactive) | > 100 µM (inactive) | – | > 100 µM (inactive) | > 100 µM (inactive) | > 100 µM (inactive) | –
3 | O=C(O)C1(c2ccccc2)CCCNCC1 (stereo not drawn) | > 100 µM (inactive) | > 100 µM (inactive) | > 100 | – | > 100 µM (inactive) | > 100 µM (inactive) | > 100 µM (inactive) | > 100 µM (inactive) | > 100 µM (inactive) | > 100 µM (inactive) | > 100 µM (inactive) | > 100 µM (inactive) | > 100 µM (inactive) | > 100 µM (inactive) | > 100 µM (inactive) | > 100 µM (inactive) | > 100 µM (inactive) | > 100 µM (inactive)
4 | CN(C)C(=S)/N=c1\ssc(=S)n1-c1ccccc1 | 25.3 µM (inactive) | 23.4 µM (inactive) | 14.7 | 18.1 µM (inactive) | 34.2 µM (inactive) | 18.9 µM (inactive) | 17 µM (inactive) | – | 15 µM (inactive) | – | 24.2 µM (inactive) | 15.3 µM (inactive) | 17.4 µM (inactive) | – | 10.7 µM (inactive) | 16.9 µM (inactive) | 15.8 µM (inactive) | 20.4 µM (inactive)
5 | Cc1cc(NS(=O)(=O)c2ccc(NC(=O)c3ccc(Cl)c4c(Nc5ccc(S(=O)(=O)N=C(N)N)cc5)c5ccccc5nc34)cc2)no1 | – | 95.1 µM (inactive) | > 100 | – | 21.6 µM (inactive) | 45.8 µM (inactive) | – | 28.1 µM (inactive) | > 100 µM (inactive) | 15.2 µM (inactive) | > 100 µM (inactive) | 32.3 µM (inactive) | 29.7 µM (inactive) | 27.6 µM (inactive) | – | > 100 µM (inactive) | 18 µM (inactive) | –
6 | COc1ccc2[nH]cc(CCNC(C)=O)c2c1 [MELATONIN] | > 100 µM (inactive) | > 100 µM (inactive) | 77.4 | > 100 µM (inactive) | > 100 µM (inactive) | 69 µM (inactive) | > 100 µM (inactive) | 39.8 µM (inactive) | > 100 µM (inactive) | > 100 µM (inactive) | > 100 µM (inactive) | > 100 µM (inactive) | > 100 µM (inactive) | – | 8.17 µM (inactive) | > 100 µM (inactive) | > 100 µM (inactive) | > 100 µM (inactive)
7 | COc1cc(N)c2[nH]c3c(C)ccc(C)c3c2c1 | > 100 µM (inactive) | > 100 µM (inactive) | > 100 | > 100 µM (inactive) | > 100 µM (inactive) | > 100 µM (inactive) | – | > 100 µM (inactive) | > 100 µM (inactive) | > 100 µM (inactive) | > 100 µM (inactive) | > 100 µM (inactive) | > 100 µM (inactive) | > 100 µM (inactive) | > 100 µM (inactive) | > 100 µM (inactive) | – | –
8 | COC(=O)/C(=N\NC(=S)NN)C(C(=O)C(=O)Nc1ccccc1C(N)=O)c1nc2ccccc2nc1O (stereo not drawn) | > 100 µM (inactive) | > 100 µM (inactive) | > 100 | – | – | – | > 100 µM (inactive) | – | > 100 µM (inactive) | > 100 µM (inactive) | > 100 µM (inactive) | > 100 µM (inactive) | – | > 100 µM (inactive) | > 100 µM (inactive) | > 100 µM (inactive) | > 100 µM (inactive) | 43.5 µM (inactive)
9 | CC(C)(C)C(=O)OC12/C(=N/O)CCCCCC1c1ccccc12 (stereo not drawn) | 17.8 µM (inactive) | – | 16.2 | 18.2 µM (inactive) | 21.7 µM (inactive) | 13.3 µM (inactive) | 16.1 µM (inactive) | 14.3 µM (inactive) | 16.9 µM (inactive) | 14.5 µM (inactive) | 15.6 µM (inactive) | 19 µM (inactive) | 14.5 µM (inactive) | – | 17.6 µM (inactive) | 15.9 µM (inactive) | 17.7 µM (inactive) | –
10 | Cc1ccc(C2=Nc3ccccc3SC(c3cccc4c3OCO4)C2)cc1 (stereo not drawn) | 23.9 µM (inactive) | 21.1 µM (inactive) | 21.1 | 17.4 µM (inactive) | 33.1 µM (inactive) | 16.9 µM (inactive) | 16.7 µM (inactive) | 16.6 µM (inactive) | 18 µM (inactive) | 17.9 µM (inactive) | 18.7 µM (inactive) | 19.5 µM (inactive) | 7.94 µM (inactive) | – | 19.1 µM (inactive) | 21.2 µM (inactive) | – | –
11 | O=C1CCN2C(=Nc3cccc4cccc2c34)N1 | > 100 µM (inactive) | 0.551 µM (active) | > 100 | > 100 µM (inactive) | > 100 µM (inactive) | > 100 µM (inactive) | > 100 µM (inactive) | > 100 µM (inactive) | > 100 µM (inactive) | > 100 µM (inactive) | – | > 100 µM (inactive) | 76.9 µM (inactive) | > 100 µM (inactive) | > 100 µM (inactive) | > 100 µM (inactive) | > 100 µM (inactive) | –
12 | COc1cccc(-c2cc(O)c3ccccc3n2)c1 | 6.92 µM (inactive) | 52.2 µM (inactive) | 4.7 | 2.98 µM (inactive) | 8.18 µM (inactive) | 3.82 µM (inactive) | 17.2 µM (inactive) | 5.18 µM (inactive) | 4.82 µM (inactive) | 6.55 µM (inactive) | 2.81 µM (inactive) | 6.46 µM (inactive) | 4.98 µM (inactive) | 5.5 µM (inactive) | 3.28 µM (inactive) | > 100 µM (inactive) | 9.53 µM (inactive) | –
13 | Cc1cccc(C)c1NC(=O)CCc1n[nH]c(=S)o1 | 88.5 µM (inactive) | > 100 µM (inactive) | 78.5 | > 100 µM (inactive) | > 100 µM (inactive) | > 100 µM (inactive) | > 100 µM (inactive) | – | > 100 µM (inactive) | > 100 µM (inactive) | > 100 µM (inactive) | > 100 µM (inactive) | > 100 µM (inactive) | – | 18.1 µM (inactive) | > 100 µM (inactive) | > 100 µM (inactive) | > 100 µM (inactive)
14 | O=C1CCCC2=C1CC1=C(CCCC1=O)N2c1cccc([N+](=O)[O-])c1 | > 100 µM (inactive) | > 100 µM (inactive) | > 100 | > 100 µM (inactive) | – | > 100 µM (inactive) | > 100 µM (inactive) | > 100 µM (inactive) | > 100 µM (inactive) | > 100 µM (inactive) | – | > 100 µM (inactive) | > 100 µM (inactive) | > 100 µM (inactive) | > 100 µM (inactive) | > 100 µM (inactive) | > 100 µM (inactive) | –
15 | CCOC(=O)C(NO)C(Sc1ccccc1)c1ccc(OC)cc1 (stereo not drawn) | 38.6 µM (inactive) | > 100 µM (inactive) | 68.9 | – | 88.3 µM (inactive) | > 100 µM (inactive) | > 100 µM (inactive) | > 100 µM (inactive) | > 100 µM (inactive) | 42.1 µM (inactive) | > 100 µM (inactive) | > 100 µM (inactive) | 55.5 µM (inactive) | > 100 µM (inactive) | > 100 µM (inactive) | > 100 µM (inactive) | > 100 µM (inactive) | > 100 µM (inactive)
16 | COc1ccc(N2C(=O)/C(=C/c3ccc(N(CCC#N)CCC#N)cc3C)N=C2/C=C\c2ccccc2)cc1 | 53 µM (inactive) | – | 5.69 | 92.7 µM (inactive) | 24.4 µM (inactive) | 38.9 µM (inactive) | 68.4 µM (inactive) | 28.8 µM (inactive) | 27.1 µM (inactive) | 34.3 µM (inactive) | 35.5 µM (inactive) | 4.35 µM (inactive) | > 100 µM (inactive) | 44 µM (inactive) | 33.2 µM (inactive) | 98.9 µM (inactive) | 46.8 µM (inactive) | > 100 µM (inactive)
17 | COc1cccc(/C=C(/C(=O)O)c2cc(OC)c(OC)c(OC)c2)c1 | > 100 µM (inactive) | > 100 µM (inactive) | > 100 | 66.5 µM (inactive) | > 100 µM (inactive) | > 100 µM (inactive) | > 100 µM (inactive) | > 100 µM (inactive) | > 100 µM (inactive) | > 100 µM (inactive) | > 100 µM (inactive) | > 100 µM (inactive) | > 100 µM (inactive) | – | > 100 µM (inactive) | > 100 µM (inactive) | > 100 µM (inactive) | 92.3 µM (inactive)
18 | O=C(O)c1nccnc1C(=O)O | > 100 µM (inactive) | > 100 µM (inactive) | > 100 | > 100 µM (inactive) | – | > 100 µM (inactive) | > 100 µM (inactive) | > 100 µM (inactive) | – | > 100 µM (inactive) | > 100 µM (inactive) | > 100 µM (inactive) | > 100 µM (inactive) | > 100 µM (inactive) | > 100 µM (inactive) | > 100 µM (inactive) | > 100 µM (inactive) | > 100 µM (inactive)
